This is an account of results in patent US10836757B1, “Polymorphic forms of metopimazine” (Neurogastrx, Inc., priority 2020, dated 2020).

Series [1] can be described thus: Clinical comparative pharmacokinetic study, 3-period cross-over, single oral doses, plasma samples. The class given is in vivo, human. As to conditions: for AUC(0-inf) / Cmax / Tmax: human, po, 15 mg; for AUC(0-inf): read-out: AUC0-inf Geometric Least Square Mean (GLSM); for Cmax: read-out: Cmax Geometric Least Square Mean (GLSM). As for the experimental part:
A clinical comparative pharmacokinetic study was performed to understand the pharmacokinetic profile of metopimazine mesylate Crystal Form A in comparison to the free base of metopimazine. This study was as a 3-period, cross-over design with 3 administrations of single doses: oral formulation of metopimazine mesylate Crystal Form A fasting, oral formulation of metopimazine mesylate Crystal Form A after a high-fat breakfast, and oral formulation of metopimazine free base fasting, with a wash-out period of 48 hours between each administration. Fifteen subjects were enrolled and received each of the 3 treatment. Plasma samples from each subject were analyzed for various pharmacokinetic parameters. Mixed model repeated measures (MMRM) analysis was performed on each sample.
The second objective of this study was to compare the pharmacokinetics of metopimazine mesylate Crystal Form A administered as an oral administration of a single dose of 15 mg orally in 15 human subjects either in a fasted state or after a high fat breakfast. Plasma samples from each subject were analyzed for various pharmacokinetic parameters. […] Both Cmax and AUC are well within the 90% confidence interval.

For series [2] the following is noted: administration before and after a high fat breakfast; cited from earlier work.
[3] abbreviates: single oral dose 15 mg, n = 15, fasted, plasma.
Where [4] appears, read: 15 mg oral, n = 15, 90% confidence interval.
Setting [5] is: 15 mg oral, n = 15, 90% confidence interval, *Bioequivalence.
[6] abbreviates: plasma, 15 mg oral, n = 15, fasted.
Setting [7] is: plasma, 15 mg oral, n = 15, fed high fat breakfast (1030 kcal, 16% protein, 61% fat, 23% carbohydrate).

Entries after “also recorded” stand apart in the source; their conditions may differ. Where a name gives a salt, the structure may show the parent alone. Read-outs that look alike come from different tables or passages of the source.

On to `CS(=O)(=O)c1ccc2c(c1)N(CCCN1CCC(C(N)=O)CC1)c1ccccc1S2` [Metopimazine free base, 1-(3-(2-(methylsulfonyl)-10H-phenothiazin-10-yl)propyl)piperidine-4-carboxamide, reference compound], for which, in series [1] (setting [3]), the “Tmax, Median” value turned out to be 60 min and the “Tmax, Min” value turned out to be 30 min. For the same compound, in series [2], the “Reduction in AUC (food effect)” value is reported as 23% and the “Reduction in Cmax (food effect)” value is reported as 58%.
With `CS(=O)(=O)c1ccc2c(c1)N(CCCN1CCC(C(N)=O)CC1)c1ccccc1S2` [Metopimazine mesylate Crystal Form A, 1-(3-(2-(methylsulfonyl)-10H-phenothiazin-10-yl)propyl)piperidine-4-carboxamide methanesulfonic acid], the “Reduction in Cmax when administered with food” value in series [1] (15 mg oral, high fat breakfast vs fasted) is reported as “approximately 15%”. For the same compound, in series [1] (15 mg oral, n = 15), the “Change in AUC, high fat breakfast vs fasted” value is given as “not statistical difference; also recorded: no notable change” and the “Geometric mean difference in Cmax, high fat breakfast vs fasted” value is given as “slightly but significantly lower”. Moreover, in series [1] (setting [4]), the “Cmax ratio fasted vs fed, Lower CI %” value is on record as 63.82% and the “Cmax ratio fasted vs fed, Upper CI %” value was found to be 110.75%. Moreover, in series [1] (setting [5]), the “AUC0-inf ratio fasted vs fed, Lower CI %” value was 86.00* % and the “AUC0-inf ratio fasted vs fed, Upper CI %” value was 101.93* %. Further, in series [1] (setting [6]), the AUC(0-inf) stood at 64 ng·h/mL and the highest concentration (Cmax) was 18.2 ng/mL. In series [1] (setting [7]), the AUC(0-inf) turned out to be 59.9 ng·h/mL and the Cmax amounted to 15.3 ng/mL. Also, in series [1] (plasma, single oral dose 15 mg, n = 15, fasted, plasma, read-out: Tmax, Mean), the Tmax was 52.2 min. The Tmax in series [1] (plasma, single oral dose 15 mg, n = 15, fasted, plasma, read-out: Tmax, Median) amounted to 45 min.

What is called Cmax is the maximum level reached in the sampled fluid or tissue. Broadly, the Tmax is the time at which the peak concentration occurs.
